Measurements as given in patent US20160124002A1, “METHOD FOR DETECTING HYPOXIA OR DIAGNOSING HYPOXIA-RELATED DISEASES” (SEOUL NATIONAL UNIVERSITY R&DB FOUNDATION, priority 2013, published 2016).

System: THP-1 cell line
Test: Metabolites in culture medium of THP-1 cells under low oxygen with HIF-1 inhibition (LC/Q-TOF MS)
Assay type: cell-based, human
Details: THP-1 culture medium, low oxygen (1% O2)
Protocol: A THP-1 cell line, a human monocyte-derived cell line was cultured in the conditions of regular oxygen (21% oxygen), low oxygen (1% oxygen), and regular oxygen after low oxygen (reoxygenation), and then, the metabolites included in the culture media were identified and quantified using a LC/Q-TOF MS analysis as follows.
The human-derived monocyte cells (THP-1) (Korean Cell Line Bank, KCLB No. 40202) at 5×10^5 cells/4 mL medium were cultured in DMEM (Dulbecco's modified Eagle's medium) including 10% FBS (fetal bovine serum) under the condition of regular oxygen (21% O2, 5% CO2) at 37° C. for 24 hours, the condition of low oxygen (1% O2, 5% CO2) at 37° C. for 24 hours, or the condition of regular oxygen for 16 hours after low oxygen for 8 hours (reoxygenation) at 37° C.
After that, the media without the cells were isolated to obtain the samples to be analyzed. The media were subjected to a centrifugation at 3000 rpm and 4° C. to obtain supernatants only. The supernatants were then aliquoted and stored in a −70° C. cryogenic deep-freezer, and were thawed immediately before use.
In order to decrease the expression of a hypoxia-inducible factor-1 (HIF-1), a major regulator in a low oxygen environment, two types of si-HIF-1alpha (#1, 5′-CAAAGUUAAAGCAUCAGG-3′; #2, 5′-UGUACUGUCCUGUGGUGA-3′) were prepared, and then used for transfection into the cells using Lipofectamine RNA iMAX reagents (Life Technologies, USA) following the manufacturer's instruction. In addition, 2-methoxyestradiol (2ME2) and 17-N-Allylamino-17-demethoxygeldanamycin (17-AAG) used (Selleck chemicals) as the inhibitors of HIF-1 were used, and YC-1 was purchased from A.G. Scientific. The cells were treated also with 2ME2 and 17-AAG at the concentrations of 100 μM during the exposure of a low oxygen condition.
H2O (400 μl) at 4° C. and medium (100 μl) were put into a 1.5 ml micro tube so as to be diluted. After that, the sample was mixed well using a vortex, and then was filtered/centrifuged at 4° C. and 14,000 g for 20 minutes to obtain the supernatant thereof. The supernatant was collected in assay vials. In addition, for a QC (quality control) assay, the diluted samples of 50 μl from all the samples were mixed (pooling).
The samples that were prepared as described above were isolated by the system equipped with a reverse column, Zorbax SB-C18, 50×2.1 mm, 1.8 μm (Agilent Technologies, USA) in Binary Agilent 1200 series HPLC (Agilent Technologies). At this time, the assay sample in the amount of 5 μl was injected so as to pass through the column that was heated at 40° C. The metabolite sample was subjected to a gradient elution with 98% solvent A (2 mM ammonium formate and 0.1% formic acid in H2O) and 2% solvent B (0.1% formic acid in methanol) at the rate of 400 μl/min for 21 minutes. In order to avoid a cross-contamination, a blank run was performed between the sample runs.
ESI algorithm was used by coupling an Agilent 6530 quadrupole time-of-flight (Q-TOF) mass spectrometer (Agilent Technologies) with HPLC. Four centroid data per one second for one spectrum from 100 to 1100 m/z were obtained, and the m/z for all the spectra were calibrated in real time using the reference value externally supplied.
The metabolites were first identified from the mass spectra in the HMDB (http://www.hmdb.ca/) and METLIN (http://metlin.scripps.edu/) database using a software (Agilent MassHunter Qualitative Analysis (version B.05.00), Agilent Mass Profiler Professional (version B.02.02)). After that, the cleavage pattern by the LC/MS/MS assay of the corresponding metabolite was subjected to an additional confirmation work as compared to a practical standard material (Cayman, Ann Arbor, Mich., USA).
The relative concentration of the corresponding metabolites was calculated using the chromatograph area of the respective metabolite in the culture solution obtained from the corresponding cells. […]

[1] = treated with HIF-1 inhibitor (2ME2 and 17-AAG at 100 μM), FIG. 4
[2] = HIF-1 expression inhibited by si-RNA, FIG. 3

| Molecule | 5-HETE that was increased under the low oxygen condition (H) [1] | 5-oxoETE that was increased under the low oxygen condition (H) [1] | 5-HETE that was increased under the low oxygen condition (H) [2] | 5-oxoETE that was increased under the low oxygen condition (H) [2] |
| --- | --- | --- | --- | --- |
| COc1cc2c(cc1O)CC[C@@H]1[C@@H]2CC[C@]2(C)[C@@H](O)CC[C@@H]12 [2ME2, 2-methoxyestradiol] | decreased | decreased | – | – |
| C=CCNC1=C2C[C@@H](C)C[C@H](OC)[C@H](O)[C@@H](C)/C=C(\C)[C@H](OC(N)=O)[C@@H](OC)/C=C\C=C(/C)C(=O)NC(=CC1=O)C2=O [17-AAG, 17-N-Allylamino-17-demethoxygeldanamycin] | decreased | decreased | – | – |
| OCc1ccc(-c2nn(Cc3ccccc3)c3ccccc23)o1 [YC-1] | decreased | decreased | – | – |
| si-HIF-1a#1: si-RNA against HIF-1alpha, 5′-CAAAGUUAAAGCAUCAGG-3′ (chemistry not given here) | – | – | decreased | decreased |
| si-HIF-1a#2: si-RNA against HIF-1alpha, 5′-UGUACUGUCCUGUGGUGA-3′ (chemistry not given here) | – | – | decreased | decreased |
